In ChEMBL document CHEMBL4049425, “Fragment-Based, Structure-Enabled Discovery of Novel Pyridones and Pyridone Macrocycles as Potent Bromodomain and Extra-Terminal Domain (BET) Family Bromodomain Inhibitors” (J Med Chem, 2017):
Activity calls are given as the source filed them. The rule behind the calls is not given here.

What was measured:
[1] = molecular target: T1, Bromodomain-containing protein 4 (Homo sapiens, UniProt O60885); test: Inhibition of human N-terminal His6-tagged BRD4 BD1-BD2 (57 to 550 residues) expressed in EScherichia coli BL21(DE3) after 1 hr by Alexa-647-conjugated probe based TR-FRET assay
[2] = test system: Liver; test: Unbound intrinsic clearance in mouse liver microsomes; type: ADME, microsome
[3] = Lipophilicity, log D of the compound; type: physicochemical; conditions: octanol/water
[4] = test system: Liver; test: Unbound intrinsic clearance in human liver microsomes; type: ADME, microsome
[5] = test system: MX1; test: Antiproliferative activity against human MX1 cells after 72 hrs by Cell Titer Glo assay; type: functional, cell-based; conditions: MX1, 72 h
[6] = test system: Liver; test: Unbound intrinsic clearance in rat liver microsomes; type: ADME, microsome
[7] = test system: Mus musculus; test: Dose normalized fAUC in mouse at 3 mg/kg, iv or 10 mg/kg, po; type: ADME, organism-based; conditions: in vivo
[8] = test system: Mus musculus; test: Unbound plasma clearance in mouse at 3 mg/kg, iv or 10 mg/kg, po; type: ADME, organism-based; conditions: in vivo
[9] = molecular target: T1, Bromodomain-containing protein 4; test: Inhibition of BRD4 in human NCI-H1299 cells after 24 hrs by Bright-Glo luciferase reporter gene assay; type: cell-based
[10] = Oral bioavailability in mouse at 10 mg/kg; type: ADME, organism-based; conditions: in vivo
[11] = test system: Mus musculus; test: Fraction absorbed in portal vein of mouse at 3 mg/kg, iv or 10 mg/kg, po; type: ADME, organism-based; conditions: in vivo
[12] = Fraction unbound in mouse plasma at 1 uM after 4 hrs by LC-MS/MS analysis; type: ADME, cell-free
[13] = Fraction unbound in rat plasma; type: ADME, cell-free
[14] = test system: Mus musculus; test: Fraction absorbed in portal vein of mouse at 1 mg/kg, iv or 1 mg/kg, po; type: ADME, organism-based; conditions: in vivo
[15] = test system: Mus musculus; test: Unbound clearance in mouse at 1 mg/kg, iv or 1 mg/kg, po; type: ADME, organism-based; conditions: in vivo
[16] = Permeability of the compound by PAMPA; type: physicochemical; conditions: read-out: permeability
[17] = test system: Rattus norvegicus; test: Unbound AUC in rat at 1 mg/kg, po; type: ADME, organism-based; conditions: in vivo
[18] = test system: Rattus norvegicus; test: Fraction absorbed in portal vein of rat at 1 mg/kg, iv or 1 mg/kg, po; type: ADME, organism-based; conditions: in vivo
[19] = Oral bioavailability in mouse at 1 mg/kg; type: ADME, organism-based; conditions: in vivo
[20] = test system: Rattus norvegicus; test: Unbound clearance in rat at 1 mg/kg, iv or 1 mg/kg, po; type: ADME, organism-based; conditions: in vivo
[21] = test system: Mus musculus; test: Unbound AUC in mouse at 1 mg/kg, po; type: ADME, organism-based; conditions: in vivo
[22] = Oral bioavailability in rat at 1 mg/kg; type: ADME, organism-based; conditions: in vivo
[23] = test system: Plasma; test: Free plasma concentration required to reach in vitro EC50 for human OPM2 cells in SCID-Beige mouse xenografted with human OPM2 cells at 1 to 3 mg/kg, po
[24] = test system: Mus musculus; test: Toxicity in SCID-Beige mouse xenografted with human OPM2 cells assessed as weight loss at 3 mg/kg, po qd for 21 days (reference value: 2%); type: organism-based; conditions: in vivo, 504 h
[25] = test system: Mus musculus; test: Toxicity in SCID-Beige mouse xenografted with human OPM2 cells assessed as weight loss at 1 mg/kg, po qd for 21 days (reference value: 2%); type: organism-based; conditions: in vivo, 504 h
[26] = test system: Mus musculus; test: Time required to reach in vitro EC50 for human OPM2 cells in SCID-Beige mouse xenografted with human OPM2 cells at 3 mg/kg, po
[27] = test system: OPM-2; test: Antiproliferative activity against human OPM2 cells; type: functional, cell-based
[28] = Fraction unbound in SCID-Beige mouse plasma xenografted with human OPM2 cells at 1 to 3 mg/kg, po; type: ADME, organism-based
[29] = test system: OPM-2; test: Antitumor activity against human OPM2 cells xenografted in SCID-Beige mouse assessed as tumor growth inhibition at 3 mg/kg, po qd for 21 days relative to control; type: functional; conditions: OPM-2, po, 504 h, read-out: TGI
[30] = test system: OPM-2; test: Antitumor activity against human OPM2 cells xenografted in SCID-Beige mouse assessed as tumor growth inhibition at 1 mg/kg, po qd for 21 days relative to control; type: functional; conditions: OPM-2, po, 504 h, read-out: TGI
[31] = test system: OPM-2; test: Antitumor activity against human OPM2 cells xenografted in SCID-Beige mouse assessed as tumor growth inhibition at 1 to 3 mg/kg, po qd measured after 21 days; type: functional, organism-based
[32] = Fraction unbound in SCID-Beige mouse plasma xenografted with human OPM2 cells at 1 to 2 mg/kg, po; type: ADME, organism-based
[33] = test system: Mus musculus; test: Time required to reach in vitro EC50 for human OPM2 cells in SCID-Beige mouse xenografted with human OPM2 cells at 2 mg/kg, po
[34] = test system: Plasma; test: Free plasma concentration required to reach in vitro EC50 for human OPM2 cells in SCID-Beige mouse xenografted with human OPM2 cells at 1 to 2 mg/kg, po
[35] = test system: OPM-2; test: Antitumor activity against human OPM2 cells xenografted in SCID-Beige mouse assessed as tumor growth inhibition compound administered po qd for 21 days; type: functional, organism-based
[36] = test system: Mus musculus; test: Toxicity in SCID-Beige mouse xenografted with human OPM2 cells assessed as weight loss at 2 mg/kg, po qd for 21 days (reference value: 2%); type: organism-based; conditions: in vivo, 504 h
[37] = test system: OPM-2; test: Antitumor activity against human OPM2 cells xenografted in SCID-Beige mouse assessed as tumor growth inhibition at 2 mg/kg, po qd for 21 days relative to control; type: functional; conditions: OPM-2, po, 504 h, read-out: TGI

Row | SMILES | Ki [1] | CL free [2] | logD [3] | CL free [4] | EC50 [5] | CL free [6] | CL free [8] | EC50 [9] | bioavailability [10] | FaFg [11] | fraction unbound at 4 h, 1 µM [12] | fraction unbound [13] | FaFg [14] | CL free [15] | Papp [16] | fAUC [17] | bioavailability [19] | CL free [20] | fAUC [21] | bioavailability [22] | other results
1 | CCS(=O)(=O)Nc1ccc(Oc2ccc(F)cc2F)c(-c2cn(C)c(=O)cc2OC2COC2)c1 | 9 nM | 150 mL/min/kg | 2.8 to 4.3 | 76.7 mL/min/kg | 25 nM | < 41.7 mL/min/kg | 143 mL/min/kg | 48 nM | 20% | 0.3 | 0.2 |  |  |  |  |  |  |  |  |  | fAUC/dose [7]: 0.026 µg·h/mL per mg/kg
2 | CCS(=O)(=O)Nc1ccc2c(c1)-c1cn(C)c(=O)cc1OCCCCc1cc(Cl)ccc1O2 | 1.5 nM | 2330 mL/min/kg | 2.8 to 4.3 | < 217 mL/min/kg | 5.7 nM | 433 mL/min/kg |  | 5.1 nM |  |  | 0.01 | 0.02 | 0.41 | 417 mL/min/kg | 2.2 ×10⁻⁶ cm/s | 1 ng·h/mL | 39% | 2330 mL/min/kg | 16 ng·h/mL | 16% | FaFg [18]: 0.44
3 | CCS(=O)(=O)Nc1cnc2c(c1)-c1cn(C)c(=O)cc1OCCCCc1cc(Cl)ccc1O2 | 3.4 nM | 1030 mL/min/kg | 2.8 to 4.3 | 63.3 mL/min/kg | 5.7 nM | 153 mL/min/kg |  | 9.3 nM |  |  | 0.06 | 0.12 | 0.76 | 102 mL/min/kg | 7.2 ×10⁻⁶ cm/s | 5 ng·h/mL | 70% | 833 mL/min/kg | 120 ng·h/mL | 19% | 
4 | CCS(=O)(=O)Nc1ccc(Oc2ccc(F)cc2F)c(-c2cn(C)c(=O)cc2OC)c1 | 13 nM | 267 mL/min/kg | 2.8 to 4.3 | 76.7 mL/min/kg | 47 nM | 250 mL/min/kg | 183 mL/min/kg | 56 nM | 63% | 0.89 | 0.14 |  |  |  |  |  |  |  |  |  | Cp(f) [23]: 0.16 µM; Activity [24]: 5%; Activity [25]: 6%; Time [26]: 6.5 h; EC50 [27]: 23 nM; fraction unbound [28]: 0.14; inhibition in vivo at 3 mg/kg [29]: 73%; fAUC/dose [7]: 0.081 µg·h/mL per mg/kg; inhibition in vivo at 1 mg/kg [30]: 66%; TGI [31]: inactive
5 | CCS(=O)(=O)c1cnc2c(c1)-c1cn(C)c(=O)cc1OCCCCc1cc(Cl)ccc1O2 | 8.9 nM | 267 mL/min/kg | 2.8 to 4.3 | 58.3 mL/min/kg | 33 nM | 73.3 mL/min/kg |  | 34 nM |  |  | 0.04 | 0.09 | 0.9 | 140 mL/min/kg | 15 ×10⁻⁶ cm/s | 69 ng·h/mL | 84% | 233 mL/min/kg | 100 ng·h/mL | 95% | Activity [25]: 4%; fraction unbound [32]: 0.04; EC50 [27]: 12 nM; Time [33]: >12 h; FaFg [18]: 1; Cp(f) [34]: 0.3 µM; TGI [35]: Dose-dependent effect; inhibition in vivo at 1 mg/kg [30]: 73%; Activity [36]: 4%; inhibition in vivo at 2 mg/kg [37]: 85%
6 | CCOc1cc(=O)n(C)cc1-c1cc(S(=O)(=O)CC)ccc1Oc1ccc(F)cc1F |  | 200 mL/min/kg | 2.8 to 4.3 | < 33 mL/min/kg | 40 nM | 103 mL/min/kg | 167 mL/min/kg | 66 nM | 41% | 0.52 | 0.1 |  |  |  |  |  |  |  |  |  | fAUC/dose [7]: 0.039 µg·h/mL per mg/kg
7 | CCOc1cc(=O)n(C)cc1-c1cc(NS(=O)(=O)CC)ccc1Oc1ccc(F)cc1F |  | < 100 mL/min/kg | 2.8 to 4.3 | < 71.7 mL/min/kg |  | 60 mL/min/kg | 267 mL/min/kg |  | 56% | 0.79 | 0.1 |  |  |  |  |  |  |  |  |  | 
8 | Cn1cc2c(cc1=O)OCCCCc1cc(Cl)ccc1Oc1ncc(CS(C)(=O)=O)cc1-2 | 11 nM | 158 mL/min/kg | 2.8 to 4.3 | 56.7 mL/min/kg | 24 nM | 107 mL/min/kg |  | 24 nM |  |  | 0.12 | 0.24 | 0.51 | 88.3 mL/min/kg | 12 ×10⁻⁶ cm/s | 2 ng·h/mL | 45% | 142 mL/min/kg | 85 ng·h/mL | 2.8% | FaFg [18]: 0.42
